From patent US20250304623A1, “PEPTIDES FOR INTRACELLULAR DELIVERY” (UNIVERSIDADE DE SANTIAGO DE COMPOSTELA, priority 2022, published 2025)
*: point of attachment. NHNH2 = NN*

Columns and labels:
Format in all cases: cell-based
Hela cells = experiment: EGFP mRNA delivery, robotic library screening, HeLa
Procedure: Cells were seeded in a 96 well plate the day before the experiment at a concentration of 50,000 cell/mL (100 μL/w) in DMEM+10% FBS+1% Gln-Abt. For robotic library screening, the delivery of EGFP-mRNA (from TriLink, fully substituted with 5-methoxyuridine, capped and polyadenylated; TriLink, CleanCap® EGFP mRNA (5moU), ref. L-7201) in six different cell lines was performed. Amphiphilic molecule stock solutions were prepared in DMSO as described above and diluted in DMEM to afford a range of concentrations. The solutions of EGFP-mRNA/amphiphilic molecule complexes were freshly prepared prior to the transfection experiments. 35 μL of the corresponding amphiphile were added to 10 μL of a solution of EGFP-mRNA at 10 ng/μL in DMEM. The mixture was shaken for 30 min at room temperature before the addition to the cells. The cell medium was aspirated, and cells were washed with PBS twice. Cells were covered with 39 μL of DMEM and 11 μL of the complex's solution were added to the cells and incubated for 4 h (final concentration of peptide=2.5, 5 and 10 μM; final concentration of EGFP-mRNA=25 ng/well). After the incubation, the medium was replaced by 100 μL of fresh DMEM supplemented with 10% FBS. The total EGFP fluorescence was quantified after 72 h in a well plate reader. Amphiphile transfection efficiency was compared and normalized to Lipofectamine® MessengerMax efficiency (value of 1 in Tables 1-5 and 7; double underlined numbers). All experiments were done in triplicate.
(§1) Tables 1-7: RLuc (pDNA) or EGFP (mRNA) expression levels were normalized to Lipofectamine reagents (value=1) and expressed as fold-times signal increase. In the case of siRNA, the siRNA treated cells fluorescence was compared with siMOCK control fluorescence, while Cas9-RNP mediated knockout was measured against the fluorescence of untreated cells. In both siRNA and Cas9-RNP, values are expressed as % fluorescence reduction. Amphiphile concentration was 5 μM in all cases. All experiments were performed in triplicate.
Tables 14-19 show the mean (triplicates) fluorescence intensity measured after the transfection of EGFP mRNA by different amphiphiles at different concentrations in a variety of cell lines. Background fluorescence values, accounted by untreated control cells, were subtracted for processing.

[1] = test system: HepG2 cells expressing EGFP; experiment: EGFP-targeting siRNA delivery (GFP silencing vs siMOCK), HepG2
Procedure: (§2) To generate an EGFP expressing HeLa cell line, HeLa cells were transfected with EGFP pDNA (pEGFP-C1, Clontech) and stable transfectants were selected with 400 μg/mL of G-418 (Millipore). Green clones were selected by epifluorescence microscopy and tested for EGFP expression stability through several passages. […] All other EGFP-expressing cell lines were obtained in a similar way from parent non-EGFP-expressing cell lines.
Cells expressing EGFP were seeded in a 96 well plate the day before the experiment at a concentration of 50,000 cell/mL (100 μL/w) in DMEM+10% FBS+1% Gln-Abt. For robotic library screening, the delivery of an EGFP-targeting siRNA (EGFP: enhanced green fluorescent protein, Ambion® Silencer® GFP Positive Control siRNA (siGFP) (AM4626)) in six different cell lines expressing EGFP was performed. […] The mixture was shaken for 30 min at room temperature (rt) before the addition to the cells. The cell medium was aspirated, and cells were washed twice with PBS. Finally, 50 μL of the solution of siRNA/amphiphile complexes were added to the cells and incubated for 4 h. After transfection, the medium was replaced by 100 μL of fresh DMEM supplemented with 10% FBS. The fluorescence knockdown was quantified after 72 h in a plate reader, by comparison with cells transfected with a non-targeting siRNA control (siMOCK, Silencer™ Negative Control No. 1 siRNA (siMOCK) (AM4611)). EGFP knockdown was compared with Lipofectamine® RNAiMAX silencing efficiency (30-60% depending on cell line, defined with a numeric value in the below tables). All experiments were done in triplicate.
as §1
Tables 20-25 show the mean (triplicates) percentage of GFP-silencing, accounted by fluorescence intensity decrease relative to a non-targeting siRNA (siMOCK) control, measured after the transfection of siRNA by different amphiphiles at different concentrations in a variety of cell lines. Background values, accounted by untreated control cells, were subtracted for processing.

[2] = test system: Hela cells expressing EGFP; experiment: Cas9-RNP delivery against EGFP (gene editing, plate reader), HeLa; conditions: for % GFP silencing due to gene editing (Cas9-RNP): HeLa
Procedure: as §2
Cells expressing EGFP were seeded in a 96 well plate the day before the experiment at a concentration of 50,000 cell/mL (100 μL/w) in DMEM+10% FBS+1% Gln-Abt. For robotic library screening, the delivery of Cas9-RNP against EGFP (RNP designed to knock-out the gene encoding for the enhanced green fluorescent protein (EGFP)) was performed. For RNP assembly, 9.2 μL of crRNA and 9.2 μL of tracrRNA were mixed in 211.6 μL of Nuclease-Free Duplex Buffer (IDT), incubated for 5 min at 95° C. and slowly cooled at rt (see I. Lostalé-Seijo, et al. Peptide/Cas9 nanostructures for ribonucleoprotein cell membrane transport and gene edition, Chem. Sci., 2017). Cas9 protein was dissolved in DMEM at a final concentration of 4 μM and equal volumes of the RNA complex and Cas9 were mixed and incubated for 5 min at rt. 75 μL of the corresponding amphiphile concentrations were added to 5 μL of RNP at 2 μM. The mixture was shaken for 30 min at room temperature before the addition to the cells. The cell medium was aspirated, and cells were washed twice with PBS. Cells were covered with 30 μL of DMEM and 20 μL of the RNP/amphiphile complexes were added to the cells (final peptide concentrations=2.5, 5 and 10 μM; final Cas9-RNP concentration=50 nM) and incubated for 4 h. After the incubation, the medium was replaced by 100 μL of fresh DMEM supplemented with 10% FBS. The total EGFP fluorescence was quantified after 72 h in a plate reader (FIG. 2, Table 1 (right) and Table 6). All experiments were done in triplicate.
as §1
Tables 26-31 show the mean (triplicates) percentage of gene editing, accounted by GFP fluorescence intensity decrease (% of reduction), measured after the transfection of Cas9-RNP by different amphiphiles at different concentrations in a variety of cell lines. Background values, accounted by untreated control cells, were subtracted for processing.

[3] = Petroselinyl, 10 μM, Hela cells
[4] = Petroselinyl, 15 μM, Hela cells

Row | Substance | mean fluorescence intensity (EGFP mRNA) (Hela cells; HeLa, Dodecanal, 2.5 μM) | mean fluorescence intensity (EGFP mRNA) (Hela cells; HeLa, Dodecanal, 5 μM) | mean fluorescence intensity (EGFP mRNA) (Hela cells; HeLa, Myristoleyl, 2.5 μM) | mean fluorescence intensity (EGFP mRNA) (Hela cells; HeLa, Oleyl, 5 μM) | mean fluorescence intensity (EGFP mRNA) (Hela cells; HeLa, Petroselinyl, 2.5 μM) | mean fluorescence intensity (EGFP mRNA) (Hela cells; HeLa, Petroselinyl, 10 μM) | percentage of GFP-silencing relative to siMOCK ([1]; Dodecanal, 10 μM) [%] | percentage of GFP-silencing relative to siMOCK ([1]; Dodecanal, 15 μM) [%] | percentage of GFP-silencing relative to siMOCK ([1]; Myristoleyl, 5 μM) [%] | percentage of GFP-silencing relative to siMOCK ([1]; Myristoleyl, 15 μM) [%] | percentage of GFP-silencing relative to siMOCK ([1]; Palmitoleyl, 5 μM) [%] | percentage of GFP-silencing relative to siMOCK ([1]; Petroselinyl, 5 μM) [%] | percentage of GFP-silencing relative to siMOCK ([1]; Petroselinyl, 10 μM) [%] | percentage of gene editing, GFP fluorescence intensity decrease (% of reduction) ([2]; Dodecanal, 5 μM, Hela cells) [%] | percentage of gene editing, GFP fluorescence intensity decrease (% of reduction) ([2]; Dodecanal, 10 μM, HeLa cells) [%] | percentage of gene editing, GFP fluorescence intensity decrease (% of reduction) ([2]; Dodecanal, 15 μM, Hela cells) [%] | percentage of gene editing, GFP fluorescence intensity decrease (% of reduction) ([2]; Myristoleyl, 5 μM, HeLa cells) [%] | percentage of gene editing, GFP fluorescence intensity decrease (% of reduction) ([2]; Myristoleyl, 10 μM, HeLa cells) [%] | percentage of gene editing, GFP fluorescence intensity decrease (% of reduction) ([2]; Myristoleyl, 15 μM, Hela cells) [%] | percentage of gene editing, GFP fluorescence intensity decrease (% of reduction) ([2]; Oleyl, 10 μM, HeLa cells) [%] | also measured
1 | Ac-RK*LRK*K*L-NH2 (Ac-RK(NHNH2)LRK(NHNH2)K(NHNH2)L-NH2; not fully specified; printed as Ac-RK*LRK*K*L-NH2; also: K*2,K*5,K*6: native or modified lysine (ε-amide to a linker)) [Peptide 7.3] | 6327 | 4738 | 13591 | 501 | 9039 | 732 | 17 | 10 | 6 | 3 | 9 | 18 | 19 | 10 | 2 | −3 | 24 | 27 | 25 | −9 | mean fluorescence intensity (EGFP mRNA) (Hela cells; Hela, Dodecanal, 10 μM): 572; mean fluorescence intensity (EGFP mRNA) (Hela cells; Hela, Myristoleyl, 10 μM): 647; mean fluorescence intensity (EGFP mRNA) (Hela cells; Hela, Palmitoleyl, 10 μM): 189; percentage of GFP-silencing relative to siMOCK ([1]; Myristoleyl, 10 μM): 5%; percentage of GFP-silencing relative to siMOCK ([1]; Oleyl, 5 μM): 7%; percentage of GFP-silencing relative to siMOCK ([1]; Oleyl, 10 μM): 9%; percentage of gene editing, GFP fluorescence intensity decrease (% of reduction) ([2]; Palmitoleyl, 5 μM, HeLa cells): 20%; percentage of gene editing, GFP fluorescence intensity decrease (% of reduction) ([2]; Palmitoleyl, 10 μM, HeLa cells): 13%; percentage of gene editing, GFP fluorescence intensity decrease (% of reduction) ([2]; Petroselinyl, 5 μM, HeLa cells): 6%; percentage of gene editing, GFP fluorescence intensity decrease (% of reduction) [2, 3]: 11%; percentage of gene editing, GFP fluorescence intensity decrease (% of reduction) [2, 4]: 33%
2 | Ac-RRLK*RLLRRLK*RL-NH2 (Ac-RRLK(NHNH2)RLLRRLK(NHNH2)RL-NH2; not fully specified; printed as Ac-RRLK*RLLRRLK*RL-NH2; also: K*4,K*11: native or modified lysine (ε-amide to a linker)) [Peptide 13.2] | – | – | – | 273 | – | – | 13 | −5 | – | – | 16 | −11 | 2 | – | – | – | – | – | – | 62 | percentage of GFP-silencing relative to siMOCK ([1]; Palmitoleyl, 10 μM): 4%; percentage of GFP-silencing relative to siMOCK ([1]; Palmitoleyl, 15 μM): 7%; percentage of GFP-silencing relative to siMOCK ([1]; Petroselinyl, 15 μM): 0%; percentage of gene editing, GFP fluorescence intensity decrease (% of reduction) ([2]; Oleyl, 5 μM, HeLa cells): 21%
3 | Ac-RK*LRRLLRK*-NH2 (Ac-RK(NHNH2)LRRLLRK(NHNH2)-NH2; not fully specified; printed as Ac-RK*LRRLLRK*-NH2; also: K*2,K*9: native or modified lysine (ε-amide to a linker)) [Peptide 9.2] | 933 | 390 | 1738 | – | – | – | – | – | −22 | −22 | – | – | – | 6 | 14 | 47 | −12 | – | 52 | – | mean fluorescence intensity (EGFP mRNA) (Hela cells; Hela, Myristoleyl, 5 μM): 585
4 | Ac-RHLK*RLK*RRLK*RL-NH2 (Ac-RHLKRLKRRLKRL-NH2; not fully specified (residues 4, 7, 11); printed as Ac-RHLK*RLK*RRLK*RL-NH2; also: linker on K* not given here) [13(Arg-His)] | – | – | – | – | 360 | −15 | – | – | – | – | – | 21 | – | 37 | 78 | – | 48 | 85 | – | 73 | mean fluorescence intensity (EGFP mRNA) (Hela cells; HeLa, Palmitoleyl, 2.5 μM): 578; mean fluorescence intensity (EGFP mRNA) (Hela cells; Hela, Petroselinyl, 5 μM): 135; percentage of GFP-silencing relative to siMOCK ([1]; Palmitoleyl, 10 μM): 30%; % GFP silencing due to gene editing (Cas9-RNP) ([2]; 5 μM, Ole tail): 73%; % GFP silencing due to gene editing (Cas9-RNP) ([2]; 5 μM, Pal tail): 73%; percentage of gene editing, GFP fluorescence intensity decrease (% of reduction) ([2]; Oleyl, 5 μM, HeLa cells): 46%; percentage of gene editing, GFP fluorescence intensity decrease (% of reduction) ([2]; Palmitoleyl, 5 μM, HeLa cells): 48%; percentage of gene editing, GFP fluorescence intensity decrease (% of reduction) ([2]; Palmitoleyl, 10 μM, HeLa cells): 73%; percentage of gene editing, GFP fluorescence intensity decrease (% of reduction) ([2]; Palmitoleyl, 15 μM, Hela cells): 78%; percentage of gene editing, GFP fluorescence intensity decrease (% of reduction) ([2]; Petroselinyl, 5 μM, HeLa cells): 23%; percentage of gene editing, GFP fluorescence intensity decrease (% of reduction) [2, 3]: 69%; percentage of gene editing, GFP fluorescence intensity decrease (% of reduction) [2, 4]: 80%
